Columns and labels:
[1] = test system: human lung cancer cell line A549; assay: cytotoxicity against A549, MTT method; type: cell-based; conditions: for IC50: Homo sapiens, A549, MTT, 72 h, n = 3; for SI2 (selective index, SI to A549): by comparing the cytotoxicity to the Vero cells
Description: (§1) The anti-Leishmania major activities of the isolated compounds were evaluated using an MTT assay according to an established protocol. In brief, gradient concentrations of sample solutions in dimethyl sulfoxide (DMSO) and L. major (1 × 10^5 parasite/well) in 100 μL of M199 medium were added to a 96-well plate and then incubated for 72 h at 25 °C. An amount of 100 μL MTT solution was then replaced and incubated overnight. The absorbance of formazan solution in DMSO was measured using a microplate reader at 550 nm. Miltefosine was used as a positive control. The human lung cancer cell line A549 was cultured in 10% FCS-supplemented DMEM. The cytotoxicity assay of isolated compounds was also performed in 96-well plates using the MTT method. Various concentrations of samples in DMSO and A549 (5 × 10^3 cells/well) were cultured in a CO2 incubator for 72 h. The medium was then replaced with 100 μL MTT solution and incubated for 1.5 h in the same condition. The viability was calculated by the absorbance of formazan at 550 nm using a microplate reader. The cytotoxicity assay against the Vero cell line was conducted as in A549, which is mentioned above. Doxorubicin was used as a positive control. The concentration gradient of each activity was essentially set as 100, 50, 25, 12.5, and 6.25 μg/mL (Figures S67–S69).

Leishmania major = assay: anti-Leishmania major activity, MTT assay; type: cell-based; conditions: for IC50: Leishmania major, MTT, 72 h, 25 °C, n = 3, read-out: IC50 L. major; for SI1 (selective index, SI to L. major): by comparing the cytotoxicity to the Vero cells
Description: as §1

Vero cells = assay: cytotoxicity against Vero cell line, MTT method; type: cell-based; conditions: Chlorocebus sabaeus, 72 h, n = 3
Description: as §1

L. major = test system: L. major; parameters: method as in PMID 37375252; conditions: isolated from the EtOAc layer; cited from earlier work

Row | Compound | IC50 [1] | SI2 (selective index, SI to A549) [1] | IC50 (Leishmania major) | SI1 (selective index, SI to L. major) (Leishmania major) | IC50 (Vero cells) | cytotoxicity against L. major (L. major)
1 | C=C1C(=O)O[C@H]2C3=C(C)CCC(=O)[C@]3(C)C[C@H](OC(=O)C=C(C)C)[C@@H]12 [Compound 1, Crossostenin A] | 2.97 ± 0.58 µM | 2.0 | 0.81 ± 0.26 µM | 7.4 | 5.99 ± 0.76 µM | –
2 | C=C1C(=O)O[C@H]2C3=C(C)CCC(=O)[C@]3(C)C[C@H](OC(=O)/C(C)=C/C)[C@@H]12 [Compound 2, Crossostenin B] | 2.3 ± 0.26 µM | 3.4 | 0.96 ± 0.17 µM | 8.2 | 7.84 ± 0.61 µM | –
3 | C=C(C(=O)OC)[C@@H]1[C@@H](OC(=O)/C(C)=C/C)C[C@@]2(C)C(=O)CCC(C)=C2[C@H]1O [Compound 3, Crossostenin C] | 5.59 ± 0.72 µM | – | 3.75 ± 0.98 µM | – | 6.2 ± 1.36 µM | –
4 | C=C(C(=O)OC)[C@@H]1[C@@H](OC(=O)/C(C)=C\C)C[C@@]2(C)C(=O)CCC(C)=C2[C@H]1O [Compound 4, Crossostenin D] | 17.1 ± 1.86 µM | – | 7.66 ± 2.26 µM | – | 17.2 ± 1.36 µM | –
5 | CC(=O)OC1CC2(C)C(=O)CCC(C)=C2C2OC(=O)C(CN3CCCC3C(=O)O)C12 (stereo not drawn) [Compound 5, Crossoseamine C] | 17.4 ± 1.86 µM | – | 4.72 ± 1.26 µM | – | 11.4 ± 0.98 µM | –
6 | CC1=C2C3OC(=O)C(CN4CCCC4C(=O)O)C3CCC2(C)C(=O)CC1 (stereo not drawn) [Compound 6, Crossoseamine D] | 83.9 ± 12.1 µM | – | 52.6 ± 11.6 µM | – | 48.5 ± 4.07 µM | –
7 | CC1=C2C3OC(=O)C(CN4CCCC4C(=O)O)C3C(O)CC2(C)C(=O)CC1 (stereo not drawn) [Compound 7, Crossoseamine E] | 58.9 ± 13.6 µM | – | 30.8 ± 5.81 µM | – | 23.8 ± 2.47 µM | –
8 | COc1cccc2c1C(=O)c1c(O)c3c(c(O)c1C2=O)C[C@@](O)(C(=O)CO)C[C@@H]3O[C@H]1C[C@H](N)[C@H](O)[C@H](C)O1 [doxorubicin, reference compound] | 0.45 ± 0.13 µM | – | – | – | 3.82 ± 0.79 µM | –
9 | CCCCCCCCCCCCCCCCOP(=O)([O-])OCC[N+](C)(C)C [miltefosine, reference compound] | – | – | 18.1 ± 1.69 µM | – | – | –
10 | crossoseamine A | – | – | – | – | – | potent cytotoxicity
11 | crossoseamine B | – | – | – | – | – | potent cytotoxicity

— article PMC10746127, “New ψ-Santonin Derivatives from Crossostephium chinense and Their Anti-Proliferative Activities against Leishmania major and Human Cancer Cells A549” (Molecules, 2023)
